# Laboratory results: US20240180923A1, “METHODS OF TREATING DISORDERS WITH ULK INHIBITORS” (Deciphera Pharmaceuticals, LLC, priority 2022, published 2024)
# Entries after “also recorded” stand apart in the source; their conditions may differ.
# Legend:
# [1] = test system: MiaPaca2 pancreatic model; test: MiaPaca2 pancreatic xenograft efficacy model, DCC-3116 with trametinib; format: in vivo, mouse; details: FIG. 5C
# Description: When tumor burdens reached 159 mm^3 on average on day 6, mice were randomly assigned into groups such that the mean tumor burden for all groups was within 10% of the overall mean tumor burden for the study population.
# [2] = test system: autophagy flux in GIST-T1 cell line; test: Autophagy flux assay in GIST-T1 cell line, DCC-3116 with ripretinib; format: cell-based; details: FIG. 11B
# Description: Constructs were designed through VectorBuilder. For each cell line, 10 ml of appropriate media was mixed with Polybrene (VectorBuilder, Cat #PL0001, stock concentration 5 mg/ml, 200 ul) to a final concentration of 15 ng/μL. These solutions were added to the 6-well plate with various cell lines plated the previous day. Cells were checked after 22 hours of incubation. Media was then removed from the cells and incubated with fresh media containing puromycin (Sigma Cat #P9620). Cells that survived puromycin selection and successfully expressed mCherry-GFP-LC3 were used for flux assays.
# Cells are seeded in FluoroBrite DMEM (Gibco Ref #A18967-01) supplemented with 10% FBS (Gibco ref #A384000-001) and Pen/Strep/Glutamine (Gibco Ref #10378-016) at appropriate seeding numbers defined empirically. The next day, cells are treated with DCC-3116 and/or ripretinib or DMSO as a control. Cells are placed in the IncuCyte for live cell imaging over the indicated time length at 37° C. with 20% 02 and 5% CO2. Cells were imaged at 4× objective lens every four hours. The data was analyzed using the Incucyte software by measuring Total Integrated Intensity (GCUX μM2/images) of red (mCherry) divided by (GCUX μM2/images) green (GFP) to measure the ratio of red/green signal change over time.
structure (smiles),measurement,setting,value
CCc1cc(N2CCN(C)CC2)ccc1Nc1ncc(C(F)(F)F)c(NCCCN2CCOCCC2=O)n1 [DCC-3116],combination effect with trametinib,[1],combine with trametinib; also recorded: additivity
same,effect on ripretinib-induced autophagy flux,[2],inhibits
